Measurements reported in paper PMC12217481, “Structure and mechanism of taniborbactam inhibition of the cefepime-hydrolyzing, partial R2-loop deletion Pseudomonas-derived cephalosporinase variant PDC-88” (Antimicrobial Agents and Chemotherapy, 2025).
In brackets after ≈: the same amount, converted by molar mass. Read-outs that look alike come from different tables or passages of the source.

Columns and labels:
[1] = system: E. coli DH10B/pTU501 (vector); experiment: Broth microdilution MIC, isogenic E. coli empty vector control; assay type: cell-based; conditions: Escherichia coli
Procedure: (§1) Genetic constructs used for minimum inhibitory concentration (MIC) testing were designed by Venatorx Pharmaceuticals and codon-optimized for use in E. coli and synthesized by Twist Bioscience as described previously ([9]). […] DH10B cells expressing an empty pET24a(+) vector (Novagen) were also grown, and the plasmid purified. Both pCR4-TOPO-PDC-88 and empty pET24a(+) were cut with BamHI and NdeI, the digests run on low-melting point agarose gels, and the bands of interest excised and ligated to yield a PDC-88 expressing pET24a(+) construct with the His tag removed. The PDC-3 expression construct was created in a similar manner but starting with a previously described pBC SK(−) vector ([42]). The final plasmids were grown in E. coli DH10B cells and purified.
(§2) Modal broth microdilution MICs (or median broth microdilution MICs where appropriate) were determined in accordance with Clinical and Laboratory Standards Institute (CLSI) M07 guidelines ([43]). Isogenic E. coli DH10B cells expressing the abovementioned plasmid-encoded PDC constructs were used. […] CLSI quality control strains Escherichia coli NCTC 13353, E. coli ATCC 35218, and Klebsiella pneumoniae ATCC 700603 were used during testing ([24]).

[2] = system: E. coli DH10B/pTU627 (PDC-90); experiment: Broth microdilution MIC, isogenic E. coli expressing PDC-90; assay type: cell-based; conditions: Escherichia coli
Procedure: as §1, §2

[3] = system: E. coli DH10B/pTU629 (PDC-92); experiment: Broth microdilution MIC, isogenic E. coli expressing PDC-92; assay type: cell-based; conditions: Escherichia coli
Procedure: as §1, §2

E. coli NCTC 13353 = experiment: Broth microdilution MIC, CLSI quality control strain; assay type: cell-based; conditions: Escherichia coli
Procedure: as §2

PDC-3 = target: T1, PDC-3 (Pseudomonas aeruginosa, UniProt P24735, T105A); experiment: Spectrophotometric β-lactam hydrolysis (progress curves, steady-state kinetics) by PDC-3; assay type: biochemical
T1 construct: The PDC-3 expression construct was created in a similar manner but starting with a previously described pBC SK(−) vector; made in house; host or cells: E. coli BL21-CodonPlus (DE3)-RP, pET24a(+)
Procedure: (§3) In order to determine the impact of the PDC-88 variant on hydrolysis, we determined hydrolysis progress curves for PDC-3, PDC-88, and a strongly hydrolyzing comparator (NDM-1 or PER-2) for cefepime (FEP, Fig. 3A), ceftazidime (CAZ, Fig. 3B), ceftolozane (TOL, Fig. 3C), and aztreonam (ATM, Fig. 3D).
(§4) β-Lactamase kinetic and inhibitor constants were determined using an Agilent 8453 UV-Visible Spectrophotometer to record progress curves and determine initial rates and other kinetic parameters as appropriate. Reactions were carried out in 1× phosphate-buffered saline (PBS) (pH 7.4) at room temperature in a 0.2 cm path-length quartz cuvette (Hellma Analytics). Reads were taken every 10 s to minimize UV-mediated background hydrolysis.
(§5) The extinction coefficients used were: nitrocefin, Δε482 = 17,400 M^−1 cm^−1, and cefepime, Δε260 = −10,000 M^−1 cm^−1.
(§6) The kinetic constants KM and Vmax were determined using a nonlinear least-squares regression of the data to the Henri-Michaelis-Menten equation (equation 1) in Origin Version 2020b (OriginLab, Northampton, MA), where v is the velocity of the reaction; Vmax is the theoretical maximum velocity; KM is the Michaelis constant; and [S] is the substrate concentration: […]

PDC-88 [4] = target: T2, PDC-88 (Pseudomonas aeruginosa, UniProt P24735, DEL316-317/G27D/G391A/T105A/V205L/V356I); experiment: Spectrophotometric β-lactam hydrolysis (progress curves, steady-state kinetics) by PDC-88; assay type: biochemical
T2 construct: NdeI 5′-[…]-3ʹ and BamHI 5ʹ-[…]-3ʹ; His tag removed) (N); made in house; host or cells: E. coli BL21-CodonPlus (DE3)-RP, pET24a(+)
Procedure: as §3, §4, §5, §6

PDC-88 [5] = experiment: as above; assay type: biochemical, Pseudomonas aeruginosa; conditions: cefepime as substrate
Procedure: as §3, §4, §5, §6

PDC-88 [6] = target: T2, PDC-88; experiment: Timed ESI-MS of acyl-enzyme formation, PDC-88; assay type: biochemical; conditions: timed ESI-MS, 1 to 30 min (ATM to 60 min)
Procedure: Timed ESI-MS experiments allow tracking of the reaction over time and determination of product modification, enabling the elucidation of mechanistic detail. Time courses were collected for both PDC-3 and PDC-88 with FEP (Fig. 4), CAZ (Fig. S1), TOL (Fig. S2), and ATM (Fig. S3). Substrate modification (here, loss of the R2 group) was determined based on differences between masses of apo and acyl-enzyme peaks (Fig. S4). […] Based on the differences in mass between the apo enzyme peaks, the acyl-enzyme peaks, and the molecular masses of each substrate, the mass of the adducts was determined and used to predict any portion of the substrate molecule that might be lost during the reaction (Fig. S4). As expected ([26][–][28]), all three cephalosporin antibiotics (FEP, CAZ, and TOL) lost their R2 groups during the reaction, while ATM (the sole monobactam) maintained its initial mass.
Five micrograms of PDC-3 or PDC-88 was incubated at the indicated molar ratio (1:2 to 1:100 PDC:β-lactam) in a total volume of 20 µL in 1× PBS at pH 7.4 at room temperature for the duration of the indicated time points. Reactions were quenched with the addition of 10 µL acetonitrile and added to 1 mL of 0.1% formic acid in water.
Data were collected using a Waters Synapt G2-Si quadrupole time-of-flight (Q-TOF) mass spectrometer and Waters Acquity UPLC BEH C18 1.7 µm column (2.1 by 100 mm). MassLynx V4.1 was used to deconvolute protein peaks. The tune settings for each sample were as follows: capillary voltage of 3.5 kV, sampling cone voltage of 35 V, source offset of 35 V, source temperature of 100°C, desolvation temperature of 500°C, cone gas flow rate of 100 L/h, desolvation gas flow rate of 800 L/h, and nebulizer bar at 6.0. Mobile phase A was 0.1% formic acid in water. Mobile phase B was 0.1% formic acid in acetonitrile. The mass accuracy of this system is ±5 Da.

[7] = FEP hydrolysis by PDC-3, 1× PBS pH 7.4, room temperature
[8] = FEP hydrolysis by PDC-88, 1× PBS pH 7.4, room temperature

Which results are given for `CO/N=C(\C(=O)N[C@@H]1C(=O)N2C(C(=O)[O-])=C(C[N+]3(C)CCCC3)CS[C@H]12)c1csc(N)n1` [FEP, cefepime]?
MIC ([1]; read-out: MIC FEP AVI): 0.12 µg/mL (≈ 0.25 µM); MIC ([1]; read-out: MIC FEP Alone): 0.12 µg/mL (≈ 0.25 µM); MIC ([1]; read-out: MIC FEP TAN): 0.12 µg/mL (≈ 0.25 µM); MIC ([1]; read-out: MIC FEP TZB): 0.12 µg/mL (≈ 0.25 µM); MIC ([2]; read-out: MIC FEP AVI): 0.5 µg/mL (≈ 1.04 µM); MIC ([2]; read-out: MIC FEP TZB): 32 µg/mL (≈ 66.6 µM); MIC ([2]; E. coli DH10B/pTU627 (PDC-90), FEP with TAN at constant 4 µg/mL, * median value reported, read-out: MIC FEP TAN): 0.5 µg/mL (≈ 1.04 µM); MIC ([2]; E. coli DH10B/pTU627 (PDC-90), read-out: MIC FEP Alone): 64 µg/mL (≈ 133 µM); MIC ([3]; read-out: MIC FEP AVI): 0.5 µg/mL (≈ 1.04 µM); MIC ([3]; read-out: MIC FEP TZB): 32 µg/mL (≈ 66.6 µM); MIC ([3]; E. coli DH10B/pTU629 (PDC-92), FEP with TAN at constant 4 µg/mL, read-out: MIC FEP TAN): 0.25 µg/mL (≈ 0.52 µM); MIC ([3]; E. coli DH10B/pTU629 (PDC-92), read-out: MIC FEP Alone): 64 µg/mL (≈ 133 µM); MIC (E. coli NCTC 13353; NCTC13353, read-out: MIC FEP Alone): 64 µg/mL (≈ 133 µM); MIC (E. coli NCTC 13353; NCTC13353, read-out: MIC FEP TAN): 0.12 µg/mL (≈ 0.25 µM); Km (PDC-3; [7]): 205 ± 9 µM; kcat (PDC-3; [7]): 0.25 ± 0.02 s⁻¹; hydrolysis progress curve (PDC-3; PDC-3, over 900 s, versus UV-mediated background): slightly above background; Km (PDC-88 [4]; [8]): 16 ± 1 µM; kcat (PDC-88 [4]; [8]): 0.16 ± 0.01 s⁻¹; hydrolysis progress curve (PDC-88 [4]; PDC-88, over 900 s, compared to PDC-3): increased hydrolysis; decrease of KM, PDC-88 compared to PDC-3 (PDC-88 [5]): 12.8 fold; decrease of kcat, PDC-88 compared to PDC-3 (PDC-88 [5]): 1.6 fold; higher catalytic efficiency (kcat/KM) of PDC-88 compared to PDC-3 (PDC-88 [5]): approximately 8.3 fold; higher catalytic efficiency (kcat/KM) of PDC-88 compared to PDC-3 (PDC-88 [5]; listed as cefepime): 8.3 fold; acyl-enzyme complex formation and deacylation (PDC-88 [6]): formed an acyl-enzyme complex with FEP, followed by relatively quick deacylation
